{"source": "ChEMBL document CHEMBL1155607", "about": "“Antigiardial activity of isoflavones from Dalbergia frutescens bark” (J Nat Prod, 2000)", "key": {"Giardia intestinalis [1]": {"test_system": "Giardia intestinalis", "assay": "[…] activity against Giardia intestinalis infected in C57B mouse assessed as intestinal motile trophozoites count at 10 mg/day administered 3 day postinfection for 4 days", "format": "functional, Giardia duodenalis"}, "Giardia intestinalis [2]": {"test_system": "Giardia intestinalis", "assay": "[…] activity against Giardia intestinalis infected in C57B mouse assessed as decrease in intestinal parasite load at 10 mg/day administered 3 day postinfection for 4 days", "format": "functional, organism-based", "settings": "Giardia duodenalis"}, "Mus musculus [3]": {"test_system": "Mus musculus", "assay": "Toxicity in C57B mouse assessed as adverse effect on body weight at 40 mg/kg, po administered once daily for 3 days", "format": "organism-based", "parameters": "dose 40 mg/kg, route oral", "settings": "in vivo, 72 h"}, "Vero": {"test_system": "Vero", "assay": "Cytotoxicity against african green monkey Vero cells up to 50 ug/mL after 48 hrs by neutral red dye assay", "format": "cell-based", "settings": "chlorocebus sabaeus"}, "Giardia intestinalis [4]": {"test_system": "Giardia intestinalis", "assay": "[…] activity against Giardia intestinalis infected in C57B mouse assessed as increase in disease cure rate at 10 mg/day administered 3 day postinfection for 4 days", "format": "functional, organism-based", "settings": "Giardia duodenalis"}, "Giardia intestinalis [5]": {"test_system": "Giardia intestinalis", "assay": "[…] activity against Giardia intestinalis ATCC 30888 assessed as impairment of parasite motility after 2 hrs", "format": "functional, organism-based", "settings": "Giardia duodenalis"}, "Mus musculus [6]": {"test_system": "Mus musculus", "assay": "Toxicity in C57B mouse assessed as induction of adverse effect on gross behavior at 40 mg/kg, po administered once daily for 3 days", "format": "organism-based", "parameters": "dose 40 mg/kg, route oral", "settings": "in vivo, 72 h"}, "Mus musculus [7]": {"test_system": "Mus musculus", "assay": "Toxicity in C57B mouse assessed as induction of adverse effect on appearance at 40 mg/kg, po administered once daily for 3 days", "format": "organism-based", "parameters": "dose 40 mg/kg, route oral", "settings": "in vivo, 72 h"}, "Mus musculus [8]": {"test_system": "Mus musculus", "assay": "Toxicity in C57B mouse assessed as induction of adverse grooming behavior at 40 mg/kg, po administered once daily for 3 days", "format": "organism-based", "parameters": "dose 40 mg/kg, route oral", "settings": "in vivo, 72 h"}, "Trichomonas [9]": {"test_system": "Trichomonas", "assay": "Antimicrobial activity against Trichomonas up to 25 ug/mL", "format": "functional, organism-based"}, "Giardia intestinalis [10]": {"test_system": "Giardia intestinalis", "assay": "[…] activity against Giardia intestinalis ATCC 30888 assessed as impairment of parasite motility after 4 hrs", "format": "functional, organism-based", "settings": "Giardia duodenalis"}, "Mus musculus [11]": {"test_system": "Mus musculus", "assay": "Toxicity in C57B mouse assessed as induction of adverse feeding behavior at 40 mg/kg, po administered once daily for 3 days", "format": "organism-based", "parameters": "dose 40 mg/kg, route oral", "settings": "in vivo, 72 h"}, "Giardia intestinalis [12]": {"test_system": "Giardia intestinalis", "assay": "[…] activity against Giardia intestinalis ATCC 30888 after 48 hrs by XTT assay", "format": "functional, organism-based", "settings": "Giardia duodenalis"}, "Giardia intestinalis [13]": {"test_system": "Giardia intestinalis", "assay": "[…] activity against Giardia intestinalis ATCC 30888 at 10 ug/mL after 48 hrs by XTT assay", "format": "functional, organism-based", "settings": "Giardia duodenalis"}, "Giardia intestinalis [14]": {"test_system": "Giardia intestinalis", "assay": "Antifungal activity against Giardia intestinalis", "format": "functional, organism-based", "settings": "Giardia duodenalis"}, "Trichomonas [15]": {"test_system": "Trichomonas", "assay": "Antimicrobial activity against Trichomonas", "format": "functional, organism-based"}}, "note": "Active and inactive are the calls of the source. No cut-off for these calls is given here."}
{"compound": "COc1ccc(-c2coc3cc(O)ccc3c2=O)cc1", "note": "[FORMONONETIN]", "values": [{"measurement": "Activity", "setting": "Giardia intestinalis [1]", "value": 0.1}, {"measurement": "Activity", "setting": "Giardia intestinalis [2]", "value": "Active"}, {"measurement": "Activity", "setting": "Mus musculus [3]", "value": "Non-toxic"}, {"measurement": "Activity", "setting": "Vero", "value": "Non-toxic"}, {"measurement": "Activity", "setting": "Giardia intestinalis [4]", "value": "Active"}, {"measurement": "IC50", "setting": "Giardia intestinalis [5]", "value": "< 1", "unit": "µg/mL"}, {"measurement": "Activity", "setting": "Mus musculus [6]", "value": "Non-toxic"}, {"measurement": "Activity", "setting": "Mus musculus [7]", "value": "Non-toxic"}, {"measurement": "Activity", "setting": "Mus musculus [8]", "value": "Non-toxic"}, {"measurement": "Activity", "setting": "Trichomonas [9]", "value": "Active"}, {"measurement": "IC50", "setting": "Giardia intestinalis [10]", "value": "< 1", "unit": "µg/mL"}, {"measurement": "Activity", "setting": "Mus musculus [11]", "value": "Non-toxic"}, {"measurement": "IC50", "setting": "Giardia intestinalis [12]", "value": 0.03, "unit": "µg/mL"}]}
{"compound": "COc1cc2c(=O)c(-c3ccc(O)cc3)coc2cc1O", "values": [{"measurement": "Activity", "setting": "Giardia intestinalis [13]", "value": "inactive"}]}
{"compound": "COc1ccc(-c2coc3cc(O)c(OC)cc3c2=O)cc1O", "values": [{"measurement": "Activity", "setting": "Giardia intestinalis [13]", "value": "inactive"}]}
{"compound": "Oc1cc(O)c2c(c1)O[C@H](c1ccc(O)c(O)c1)[C@H](O)C2", "note": "[(-)-EPICATECHIN]", "values": [{"measurement": "IC50", "setting": "Giardia intestinalis [14]", "value": "< 1", "unit": "µg/mL"}]}
{"compound": "COc1ccc(-c2coc3cc(O)cc(O)c3c2=O)cc1", "note": "[BIOCHANIN]", "values": [{"measurement": "IC50", "setting": "Giardia intestinalis [12]", "value": 3.5, "unit": "µg/mL"}]}
{"compound": "O=c1c(-c2ccc(O)cc2)coc2cc(O)ccc12", "note": "[DAIDZEIN]", "values": [{"measurement": "IC50", "setting": "Giardia intestinalis [12]", "value": 3.75, "unit": "µg/mL"}]}
{"compound": "O=c1c(-c2ccc3c(c2)OCO3)coc2cc(O)ccc12", "note": "[PSEUDOBAPTOGENIN]", "values": [{"measurement": "IC50", "setting": "Giardia intestinalis [12]", "value": 0.56, "unit": "µg/mL"}]}
{"compound": "COc1ccc(-c2coc3cc(O)c(OC)cc3c2=O)cc1", "note": "[CASTANIN]", "values": [{"measurement": "IC50", "setting": "Giardia intestinalis [12]", "value": "> 5", "unit": "µg/mL"}]}
{"compound": "Cc1ncc([N+](=O)[O-])n1CCO", "note": "[METRONIDAZOLE]", "values": [{"measurement": "Activity", "setting": "Giardia intestinalis [5]", "value": "inactive"}, {"measurement": "Activity", "setting": "Trichomonas [15]", "value": "Active"}, {"measurement": "Activity", "setting": "Giardia intestinalis [10]", "value": "inactive"}, {"measurement": "IC50", "setting": "Giardia intestinalis [12]", "value": 0.1, "unit": "µg/mL"}]}
{"compound": "O=c1c(-c2ccc(O)cc2)coc2cc(O)cc(O)c12", "note": "[GENISTEIN]", "values": [{"measurement": "IC50", "setting": "Giardia intestinalis [12]", "value": "> 5", "unit": "µg/mL"}]}
{"compound": "COc1cc2c(cc1-c1coc3cc(O)ccc3c1=O)OCO2", "note": "[CUNEATIN]", "values": [{"measurement": "Activity", "setting": "Giardia intestinalis [13]", "value": "inactive"}, {"measurement": "IC50", "setting": "Giardia intestinalis [12]", "value": "> 10", "unit": "µg/mL"}]}
{"compound": "COc1cc2c(=O)c(-c3ccc4c(c3)OCO4)coc2cc1O", "note": "[FUJIKINETIN]", "values": [{"measurement": "IC50", "setting": "Giardia intestinalis [12]", "value": 1.5, "unit": "µg/mL"}]}
